We go through 34 compounds from US20250129104A1, “7H-PYRROLO[2,3-D]PYRIMIDINES AND PREPARATION AND USES THEREOF” (BioSplice Therapeutics, Inc., priority 2021, published 2025).

For the test, the target named is recombinant DYRK1A kinase (Homo sapiens (Human), UniProt Q13627). Briefly: DYRK1A kinase assay (Ser/Thr 18 peptide Z-lyte FRET assay). Conditions: DYRK1A kinase activity; 15 μM ATP, 1 h room temperature; method text calls the value IC50. Format: biochemical. Here is the method: Representative compounds were screened using the assay procedure for DYRK1A kinase activity as described below.
Each compound was dissolved in DMSO as a 10 mM stock and used to prepare compound source plates. Serial dilution (1:3, 11-point dose-response curves from 10 μM to 0.00016 μM) and compound transfer was performed using the ECHO 550 (Labcyte, Sunnyvale, CA) into 1536-well black-walled round bottom plates (Corning).
The DYRK1A kinase assay was run using the Ser/Thr 18 peptide Z-lyte assay kit according to manufacturer's instructions (Life Technologies—a Division of Thermo-Fisher). This is a non-radioactive assay using fluorescence resonance energy transfer (FRET) between coumarin and fluorescein to detect kinase activity which is represented as a ratio of coumarin emission/fluorescein emission.
Briefly, recombinant DYRK1A kinase, ATP and Ser/Thr peptide 18 were prepared in 1× Kinase buffer to final concentrations of 0.25 μg/mL, 15 μM, and 4 μM respectively. The mixture was allowed to incubate with the representative compounds for one hour at room temperature. All reactions were performed in duplicate. Unphosphorylated (“0% Control”) and phosphorylated (“100% control”) forms of Ser/Thr 18 served as control reactions. Additionally, an 11-point dose-response curve of Staurosporine (1 uM top) was run to serve as a positive compound control.
After incubation, Development Reagent A was diluted in Development Buffer then added to the reaction and allowed to further incubate for one hour at room temperature. The plate was read at Ex 400 Em […] to detect the coumarin signal and Ex 400 Em 520 to measure the signal (EnVision Multilabel Plate Reader, PerkinElmer).
The Emission ratio (Em) was calculated as a ratio of the coumarin (C) emission signal (at 445 nm)/Fluorescein (F) emission signal (at 520 nm). The percent phosphorylation was then calculated using the following formula: [1−((Em ratio×F100%)−C100%)/((C0%−C100%)+(Em ratio×(F100%−F0%)))]. Dose-response curves were generated, and inhibitory concentration (IC50) values were calculated using non-linear regression curve fit in the Dotmatics' Studies Software (Bishops Stortford, UK).

What is called EC50 is the concentration that produces a half-maximal response. Turning to “4-Methoxy-N-(cis-4-methoxycyclohexyl)-5-(1-methyl-1H-benzo[d][1,2,3]triazol-6-yl)-7H-pyrrolo[2,3-d]pyrimidin-2-amine [Compound 3114]”, the EC50 came out at 1.2 nM.

Consider “5-(1-(2,2-Difluoroethyl)-1H-benzo[d][1,2,3]triazol-6-yl)-4-methoxy-N-(cis-4-(trifluoromethoxy)cyclohexyl)-7H-pyrrolo[2,3-d]pyrimidin-2-amine [Compound 2297]”, for which the EC50 turned out to be 458 nM.

“5-(1-(2,2-Difluoroethyl)-1H-benzo[d][1,2,3]triazol-6-yl)-N-(2-fluoro-2-methylpropyl)-4-methoxy-7H-pyrrolo[2,3-d]pyrimidin-2-amine [Compound 2292]”: the EC50 stood at 17.4 nM.

On to “5-(1-(2,2-Difluoroethyl)-1H-benzo[d][1,2,3]triazol-6-yl)-N-(cis-4-(difluoromethoxy)cyclohexyl)-4-methoxy-7H-pyrrolo[2,3-d]pyrimidin-2-amine [Compound 2296]”, for which the EC50 was 103 nM.

Turning to “5-(2-Cyclopropyl-7H-pyrrolo[2,3-d]pyrimidin-5-yl)-N-methyl-N-(tetrahydro-2H-pyran-4-yl)pyrazolo[1,5-a]pyridine-3-carboxamide [Compound 1552]”, the EC50 is 194 nM.

In the case of “5-(3-Chloropyrazolo[1,5-a]pyrimidin-5-yl)-N-(2-fluoro-2-methylpropyl)-7H-pyrrolo[2,3-d]pyrimidin-2-amine [Compound 1680]”, the EC50 was 26.1 nM.

Take “5-(Imidazo[1,2-a]pyrazin-6-yl)-7H-pyrrolo[2,3-d]pyrimidine [Compound 491]”: the EC50 came out at 15.5 nM.

As to `COc1ccc(-c2c[nH]c3nc(NCC(C)(C)F)ncc23)cc1` [Compound 1, N-(2-Fluoro-2-methylpropyl)-5-(4-methoxyphenyl)-7H-pyrrolo[2,3-d]pyrimidin-2-amine], the EC50 came out at 236 nM.

In the case of `COc1ccc(-c2c[nH]c3nc(NC4CCN(S(C)(=O)=O)CC4)ncc23)c(OC)c1` [Compound 2, 5-(2,4-Dimethoxyphenyl)-N-(1-(methylsulfonyl)piperidin-4-yl)-7H-pyrrolo [2,3-d]pyrimidin-2-amine], the EC50 worked out at 43.8 nM.

For `Cn1cc(-c2c[nH]c3nc(NCC(C)(C)F)ncc23)ccc1=O` [Compound 3, 5-(2-((2-Fluoro-2-methylpropyl)amino)-7H-pyrrolo[2,3-d]pyrimidin-5-yl)-1-methylpyridin-2(1H)-one], the EC50 was found to be 22.1 nM.

For `Cn1cc(-c2c[nH]c3nc(NC4CCC(F)(F)CC4)ncc23)ccc1=O` [Compound 4, 5-(2-((4,4-Difluorocyclohexyl)amino)-7H-pyrrolo[2,3-d]pyrimidin-5-yl)-1-methylpyridin-2(1H)-one], the EC50 amounted to 411 nM.

Regarding `CC(C)(F)CNc1ncc2c(-c3ccc(C(F)F)nc3)c[nH]c2n1` [Compound 5, 5-(6-(Difluoromethyl)pyridin-3-yl)-N-(2-fluoro-2-methylpropyl)-7H-pyrrolo [2,3-d]pyrimidin-2-amine], the EC50 is 1400 nM.

As for `COc1ccc(-c2c[nH]c3nc(NCC(C)(C)F)ncc23)cn1` [Compound 6, N-(2-Fluoro-2-methylpropyl)-5-(6-methoxypyridin-3-yl)-7H-pyrrolo[2,3-d]pyrimidin-2-amine], the EC50 is 33.9 nM.

`CC(C)(F)CNc1ncc2c(-c3ccc(OC(F)F)nc3)c[nH]c2n1` [Compound 7]: the EC50 was greater than 10000 nM.

For `COc1ccc(-c2c[nH]c3ncnc(N[C@H]4CC[C@H](N5CCOCC5)CC4)c23)cn1` [Compound 8, 5-(6-Methoxypyridin-3-yl)-N-(trans-4-morpholinocyclohexyl)-7H-pyrrolo [2,3-d]pyrimidin-4-amine], the EC50 amounted to 768 nM.

In the case of `COc1ncc(-c2c[nH]c3nc(NCC(C)(C)F)ncc23)cn1` [Compound 9, N-(2-Fluoro-2-methylpropyl)-5-(2-methoxypyrimidin-5-yl)-7H-pyrrolo[2,3-d]pyrimidin-2-amine], the concentration giving a half-maximal response (EC50) came out at 778 nM.

Regarding `CN1CCN(c2ccc(CNc3ncc4c(-c5ccc6c(c5)CNC6=O)c[nH]c4n3)cn2)CC1` [Compound 10, 5-(2-(((6-(4-Methylpiperazin-1-yl)pyridin-3-yl)methyl)amino)-7H-pyrrolo [2,3-d]pyrimidin-5-yl)isoindolin-1-one], the EC50 was 96.8 nM.

In the case of `Cc1nc2ccc(-c3c[nH]c4nc(NCC(C)(C)F)ncc34)nc2s1` [Compound 54, N-(2-Fluoro-2-methylpropyl)-5-(2-methylthiazolo[5,4-b]pyridin-5-yl)-7H-pyrrolo[2,3-d]pyrimidin-2-amine], the EC50 amounted to 671 nM.

As to `CN1CCN(c2ccc(Nc3ncc4c(-c5cc6cnccc6s5)c[nH]c4n3)cn2)CC1` [Compound 93, N-(6-(4-Methylpiperazin-1-yl)pyridin-3-yl)-5-(thieno[3,2-c]pyridin-2-yl)-7H-pyrrolo[2,3-d]pyrimidin-2-amine], the EC50 amounted to 6.4 nM.

On to `c1cnc2sc(-c3c[nH]c4ncncc34)nc2c1` [Compound 98, 2-(7H-Pyrrolo[2,3-d]pyrimidin-5-yl)thiazolo[5,4-b]pyridine], for which the EC50 turned out to be 22.1 nM.

For the compound `CCNc1ncc2c(-c3ccc4nccn4c3)c[nH]c2n1` [Compound 107, N-Ethyl-5-(imidazo[1,2-a]pyridin-6-yl)-7H-pyrrolo[2,3-d]pyrimidin-2-amine], the EC50 worked out at 1.6 nM.

Regarding `FC(F)(F)CNc1ncc2c(-c3ccc4nccn4c3)c[nH]c2n1` [Compound 114, 5-(Imidazo[1,2-a]pyridin-6-yl)-N-(2,2,2-trifluoroethyl)-7H-pyrrolo[2,3-d]pyrimidin-2-amine], the EC50 was determined as 4.6 nM.

On to `Fc1cnc2ccc(-c3c[nH]c4nc(C5CC5)ncc34)cn12` [Compound 145, 2-Cyclopropyl-5-(3-fluoroimidazo[1,2-a]pyridin-6-yl)-7H-pyrrolo[2,3-d]pyrimidine], for which the concentration giving a half-maximal response (EC50) turned out to be 94.3 nM.

As for `C[C@@H](Nc1ncc2c(-c3ccc4ncc(F)n4c3)c[nH]c2n1)C(F)(F)F` [Compound 158, (R)-5-(3-Fluoroimidazo[1,2-a]pyridin-6-yl)-N-(1,1,1-trifluoropropan-2-yl)-7H-pyrrolo[2,3-d]pyrimidin-2-amine], the EC50 amounted to 5.5 nM.

For `CC(C)CNc1ncc2c(-c3cc(F)c4nccn4c3)c[nH]c2n1` [Compound 196, 5-(8-Fluoroimidazo[1,2-a]pyridin-6-yl)-N-isobutyl-7H-pyrrolo[2,3-d]pyrimidin-2-amine], the EC50 is 60.5 nM.

Turning to `CC(C)(C)CNc1ncc2c(-c3cc(F)c4nccn4c3)c[nH]c2n1` [Compound 197, 5-(8-Fluoroimidazo[1,2-a]pyridin-6-yl)-N-neopentyl-7H-pyrrolo[2,3-d]pyrimidin-2-amine], the EC50 turned out to be 75.4 nM.

For the compound `Fc1cc(-c2c[nH]c3nc(NCCC(F)(F)F)ncc23)cn2ccnc12` [Compound 204, 5-(8-Fluoroimidazo[1,2-a]pyridin-6-yl)-N-(3,3,3-trifluoropropyl)-7H-pyrrolo [2,3-d]pyrimidin-2-amine], the EC50 turned out to be 6.6 nM.

As for `Fc1cc(-c2c[nH]c3nc(NCC4CC4)ncc23)cn2ccnc12` [Compound 207, N-(Cyclopropylmethyl)-5-(8-fluoroimidazo[1,2-a]pyridin-6-yl)-7H-pyrrolo [2,3-d]pyrimidin-2-amine], the EC50 was found to be 27.4 nM.

Regarding `CO[C@H]1CC[C@@H](Nc2ncc3c(-c4cc(F)c5nccn5c4)c[nH]c3n2)CC1` [Compound 216, 5-(8-Fluoroimidazo[1,2-a]pyridin-6-yl)-N-(cis-4-methoxycyclohexyl)-7H-pyrrolo[2,3-d]pyrimidin-2-amine], the EC50 was found to be 14.9 nM.

For the compound `CN1CCC(Nc2ncc3c(-c4cc(F)c5nccn5c4)c[nH]c3n2)CC1` [Compound 219, 5-(8-Fluoroimidazo[1,2-a]pyridin-6-yl)-N-(1-methylpiperidin-4-yl)-7H-pyrrolo[2,3-d]pyrimidin-2-amine], the EC50 was found to be 5.5 nM.

On to `Fc1cc(-c2c[nH]c3nc(NC4CCOCC4)ncc23)cn2ccnc12` [Compound 221, 5-(8-Fluoroimidazo[1,2-a]pyridin-6-yl)-N-(tetrahydro-2H-pyran-4-yl)-7H-pyrrolo[2,3-d]pyrimidin-2-amine], for which the EC50 is 23 nM.

For `Cc1cn2cc(-c3c[nH]c4nc(C5CC5)ncc34)cc(F)c2n1` [Compound 233, 2-Cyclopropyl-5-(8-fluoro-2-methylimidazo[1,2-a]pyridin-6-yl)-7H-pyrrolo [2,3-d]pyrimidine], the EC50 was 268 nM.

As to `Cc1cn2cc(-c3c[nH]c4nc(NC5CCC(F)(F)CC5)ncc34)cc(F)c2n1` [Compound 258, N-(4,4-Difluorocyclohexyl)-5-(8-fluoro-2-methylimidazo[1,2-a]pyridin-6-yl)-7H-pyrrolo[2,3-d]pyrimidin-2-amine], the EC50 came to 45.3 nM.

With `CCOc1ncc2c(-c3cc(F)c4ncc(C)n4c3)c[nH]c2n1` [Compound 293, 2-Ethoxy-5-(8-fluoro-3-methylimidazo[1,2-a]pyridin-6-yl)-7H-pyrrolo[2,3-d]pyrimidine], the EC50 came to 93.6 nM.
